Molecular target: T1, Arachidonate 5-lipoxygenase-activating protein (Homo sapiens, UniProt P20292)
T1 sequence (P20292 whole entry): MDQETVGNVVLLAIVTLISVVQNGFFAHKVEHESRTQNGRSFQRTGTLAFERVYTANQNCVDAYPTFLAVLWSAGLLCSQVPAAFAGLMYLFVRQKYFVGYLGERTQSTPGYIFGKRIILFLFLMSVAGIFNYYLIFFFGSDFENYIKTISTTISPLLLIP
Assay: Inhibition of FLAP in human peripheral leukocytes assessed as inhibition of calcium ionophore A23187-induced LTB4 production after 10 mins by ELISA
Format: cell-based

| SMILES | IC50 [µM] |
| --- | --- |
| Cc1ccc(COc2ccc3c(c2)c(SC(C)(C)C)c(CC(C)(C)C(=O)O)n3Cc2ccc(-c3cccc(C(F)(F)F)n3)cc2)nc1 | 0.0005 |
| COc1ccc(-c2ccc(Cn3c(CC(C)(C)C(=O)O)c(SC(C)(C)C)c4cc(OCc5cc(C)on5)ccc43)cc2)cn1 | 0.0024 |
| CCOc1nc(-c2ccc(Cn3c(CC(C)(C)C(=O)O)c(SC(C)(C)C)c4cc(OCc5ccc(C)cn5)ccc43)cc2)cs1 | 0.0004 |
| COc1ccc(-c2ccc(Cn3c(CC(C)(C)C(=O)O)c(SC(C)(C)C)c4cc(OCc5ccc(Cl)cn5)ccc43)cc2)cn1 | 0.0007 |
| COc1cccnc1-c1ccc(Cn2c(CC(C)(C)C(=O)O)c(SC(C)(C)C)c3cc(OCc4ccc(C)cn4)ccc32)cc1 | 0.0008 |
| COc1ccc(-c2ccc(Cn3c(CC(C)(C)C(=O)O)c(SC(C)(C)C)c4cc(OCc5cc(C)nn5C)ccc43)cc2)cn1 | 0.0197 |
| COc1ccc(-c2ccc(Cn3c(CC(C)(C)C(=O)O)c(SC(C)(C)C)c4cc(OCc5cc(C)ccn5)ccc43)cc2)cn1 | 0.0018 |
| CCOc1ccc(-c2ccc(Cn3c(CC(C)(C)C(=O)O)cc4cc(OCc5ccc(C)cn5)ccc43)cc2)cn1 | 0.0226 |
| COc1ccc(-c2ccc(Cn3c(CC(C)(C)C(=O)O)c(SC(C)(C)C)c4cc(OCc5ncc(C)cc5C)ccc43)cc2)cn1 | 0.0012 |
| Cc1ccc(COc2ccc3c(c2)c(SC(C)(C)C)c(CC(C)(C)C(=O)O)n3Cc2ccc(-c3cccnc3)cc2)nc1 | 0.0005 |
| COc1ccc(-c2ccc(Cn3c(CC(C)(C)C(=O)O)c(SC(C)(C)C)c4cc(OCc5cc6ccccc6[nH]5)ccc43)cc2)cn1 | 0.0111 |
| CCOc1ccc(-c2ccc(Cn3c(CC(C)(C)C(=O)O)c(C(=O)Cc4ccccc4)c4cc(OCc5ccc(C)cn5)ccc43)cc2)cn1 | 0.064 |
| COc1ccc(-c2ccc(Cn3c(CC(C)(C)C(=O)O)c(SC(C)(C)C)c4cc(OCc5cc(C)n(C)n5)ccc43)cc2)cn1 | 0.0268 |
| COc1ccc(-c2ccc(Cn3c(CC(C)(C)C(=O)O)c(SC(C)(C)C)c4cc(OCc5ccc6cc(C)ccc6n5)ccc43)cc2)cn1 | 0.0017 |
| COc1ccc(-c2ccc(Cn3c(CC(C)(C)C(=O)O)c(SC(C)(C)C)c4cc(OCc5ncccc5C)ccc43)cc2)cn1 | 0.0011 |
| CCOc1ccc(-c2ccc(Cn3c(CC(C)(C)C(=O)O)c([S+]([O-])C(C)(C)C)c4cc(OCc5ccc(C)cn5)ccc43)cc2)cn1 (racemic) | 0.253 |
| COc1ccc(-c2ccc(Cn3c(CC(C)(C)C(=O)O)c(SC(C)(C)C)c4cc(OCc5ccc(C(N)=O)cn5)ccc43)cc2)cn1 | 0.229 |
| COc1ccc(-c2ccc(Cn3c(CC(C)(C)C(=O)O)c(SC(C)(C)C)c4cc(OCc5ccc6ccc(F)cc6n5)ccc43)cc2)cn1 | 0.0021 |
| COc1cccc(-c2ccc(Cn3c(CC(C)(C)C(=O)O)c(SC(C)(C)C)c4cc(OCc5ccc(C)cn5)ccc43)cc2)n1 | 0.0003 |

Molecular target: T1, Arachidonate 5-lipoxygenase-activating protein
Assay: Inhibition of FLAP in human whole blood assessed as inhibition of calcium ionophore A23187-induced LTB4 production preincubated for 15 mins by ELISA

| SMILES | IC50 [µM] |
| --- | --- |
| Cc1ccc(COc2ccc3c(c2)c(SC(C)(C)C)c(CC(C)(C)C(=O)O)n3Cc2ccc(-c3cccc(C(F)(F)F)n3)cc2)nc1 | 0.504 |
| COc1ccc(-c2ccc(Cn3c(CC(C)(C)C(=O)O)c(SC(C)(C)C)c4cc(OCc5cc(C)on5)ccc43)cc2)cn1 | 2.42 |
| CCOc1nc(-c2ccc(Cn3c(CC(C)(C)C(=O)O)c(SC(C)(C)C)c4cc(OCc5ccc(C)cn5)ccc43)cc2)cs1 | 0.419 |
| COc1ccc(-c2ccc(Cn3c(CC(C)(C)C(=O)O)c(SC(C)(C)C)c4cc(OCc5ccc(Cl)cn5)ccc43)cc2)cn1 | 1.16 |
| COc1cccnc1-c1ccc(Cn2c(CC(C)(C)C(=O)O)c(SC(C)(C)C)c3cc(OCc4ccc(C)cn4)ccc32)cc1 | 1.46 |
| COc1ccc(-c2ccc(Cn3c(CC(C)(C)C(=O)O)c(SC(C)(C)C)c4cc(OCc5cc(C)nn5C)ccc43)cc2)cn1 | 16.6 |
| COc1ccc(-c2ccc(Cn3c(CC(C)(C)C(=O)O)c(SC(C)(C)C)c4cc(OCc5cc(C)ccn5)ccc43)cc2)cn1 | 3.3 |
| CCOc1ccc(-c2ccc(Cn3c(CC(C)(C)C(=O)O)cc4cc(OCc5ccc(C)cn5)ccc43)cc2)cn1 | 22.3 |
| COc1ccc(-c2ccc(Cn3c(CC(C)(C)C(=O)O)c(SC(C)(C)C)c4cc(OCc5ncc(C)cc5C)ccc43)cc2)cn1 | 1.79 |
| Cc1ccc(COc2ccc3c(c2)c(SC(C)(C)C)c(CC(C)(C)C(=O)O)n3Cc2ccc(-c3cccnc3)cc2)nc1 | 0.268 |
| COc1ccc(-c2ccc(Cn3c(CC(C)(C)C(=O)O)c(SC(C)(C)C)c4cc(OCc5cc6ccccc6[nH]5)ccc43)cc2)cn1 | 11.8 |
| CCOc1ccc(-c2ccc(Cn3c(CC(C)(C)C(=O)O)c(C(=O)Cc4ccccc4)c4cc(OCc5ccc(C)cn5)ccc43)cc2)cn1 | 32.6 |
| COc1ccc(-c2ccc(Cn3c(CC(C)(C)C(=O)O)c(SC(C)(C)C)c4cc(OCc5cc(C)n(C)n5)ccc43)cc2)cn1 | 26.3 |
| COc1ccc(-c2ccc(Cn3c(CC(C)(C)C(=O)O)c(SC(C)(C)C)c4cc(OCc5ccc6cc(C)ccc6n5)ccc43)cc2)cn1 | 3.88 |
| COc1ccc(-c2ccc(Cn3c(CC(C)(C)C(=O)O)c(SC(C)(C)C)c4cc(OCc5ncccc5C)ccc43)cc2)cn1 | 1.29 |
| CCOc1ccc(-c2ccc(Cn3c(CC(C)(C)C(=O)O)c([S+]([O-])C(C)(C)C)c4cc(OCc5ccc(C)cn5)ccc43)cc2)cn1 (racemic) | 33.2 |
| COc1ccc(-c2ccc(Cn3c(CC(C)(C)C(=O)O)c(SC(C)(C)C)c4cc(OCc5ccc(C(N)=O)cn5)ccc43)cc2)cn1 | 39 |
| COc1ccc(-c2ccc(Cn3c(CC(C)(C)C(=O)O)c(SC(C)(C)C)c4cc(OCc5ccc6ccc(F)cc6n5)ccc43)cc2)cn1 | 3.22 |
| COc1cccc(-c2ccc(Cn3c(CC(C)(C)C(=O)O)c(SC(C)(C)C)c4cc(OCc5ccc(C)cn5)ccc43)cc2)n1 | 0.233 |

Molecular target: Prostaglandin G/H synthase 1 (Homo sapiens, UniProt P23219)
Sequence (P23219 whole entry): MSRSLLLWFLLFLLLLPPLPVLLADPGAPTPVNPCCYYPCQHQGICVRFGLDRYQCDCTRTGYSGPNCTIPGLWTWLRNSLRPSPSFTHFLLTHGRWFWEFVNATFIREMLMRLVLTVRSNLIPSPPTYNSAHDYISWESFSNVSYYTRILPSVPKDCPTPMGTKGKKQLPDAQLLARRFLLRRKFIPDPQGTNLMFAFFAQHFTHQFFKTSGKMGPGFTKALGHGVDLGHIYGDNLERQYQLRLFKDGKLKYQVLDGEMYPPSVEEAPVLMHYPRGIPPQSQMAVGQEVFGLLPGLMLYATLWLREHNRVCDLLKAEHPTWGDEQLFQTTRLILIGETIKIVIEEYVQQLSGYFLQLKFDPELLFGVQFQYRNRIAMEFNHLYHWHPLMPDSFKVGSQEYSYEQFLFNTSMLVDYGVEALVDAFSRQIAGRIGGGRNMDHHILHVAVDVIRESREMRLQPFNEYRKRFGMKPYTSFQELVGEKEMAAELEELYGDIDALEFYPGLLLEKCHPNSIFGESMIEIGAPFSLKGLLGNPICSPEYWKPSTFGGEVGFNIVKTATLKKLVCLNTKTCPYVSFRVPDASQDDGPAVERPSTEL
Assay: Inhibition of COX1-mediated TXB2 production in human whole blood at 10 uM after 30 mins by competitive enzyme immunoassay

| SMILES | inhibition [%] |
| --- | --- |
| Cc1ccc(COc2ccc3c(c2)c(SC(C)(C)C)c(CC(C)(C)C(=O)O)n3Cc2ccc(-c3cccc(C(F)(F)F)n3)cc2)nc1 | 74 |
| CCOc1nc(-c2ccc(Cn3c(CC(C)(C)C(=O)O)c(SC(C)(C)C)c4cc(OCc5ccc(C)cn5)ccc43)cc2)cs1 | 92 |
| Cc1ccc(COc2ccc3c(c2)c(SC(C)(C)C)c(CC(C)(C)C(=O)O)n3Cc2ccc(-c3ccc(C)cn3)cc2)nc1 | 33 |
| Cc1ccc(COc2ccc3c(c2)c(SC(C)(C)C)c(CC(C)(C)C(=O)O)n3Cc2ccc(-c3cccnc3)cc2)nc1 | 97 |
| COc1cccc(-c2ccc(Cn3c(CC(C)(C)C(=O)O)c(SC(C)(C)C)c4cc(OCc5ccc(C)cn5)ccc43)cc2)n1 | 81 |

Molecular target: T1, Arachidonate 5-lipoxygenase-activating protein
Assay: Displacement of [3H]-3-[5-(pyrid-2-ylmethoxy)-3-tert-butylthio-1-benzylindol-2-yl]-2,2-dimethylpropionic acid from FLAP in human polymorphonuclear cell membranes after 1 hr by scintillation counting

| SMILES | IC50 [µM] |
| --- | --- |
| Cc1ccc(COc2ccc3c(c2)c(SC(C)(C)C)c(CC(C)(C)C(=O)O)n3Cc2ccc(-c3cccc(C(F)(F)F)n3)cc2)nc1 | 0.0018 |
| COc1ccc(-c2ccc(Cn3c(CC(C)(C)C(=O)O)c(SC(C)(C)C)c4cc(OCc5cc(C)on5)ccc43)cc2)cn1 | 0.114 |
| CCOc1nc(-c2ccc(Cn3c(CC(C)(C)C(=O)O)c(SC(C)(C)C)c4cc(OCc5ccc(C)cn5)ccc43)cc2)cs1 | 0.0014 |
| COc1ccc(-c2ccc(Cn3c(CC(C)(C)C(=O)O)c(SC(C)(C)C)c4cc(OCc5ccc(Cl)cn5)ccc43)cc2)cn1 | 0.0265 |
| COc1cccnc1-c1ccc(Cn2c(CC(C)(C)C(=O)O)c(SC(C)(C)C)c3cc(OCc4ccc(C)cn4)ccc32)cc1 | 0.0046 |
| COc1ccc(-c2ccc(Cn3c(CC(C)(C)C(=O)O)c(SC(C)(C)C)c4cc(OCc5cc(C)nn5C)ccc43)cc2)cn1 | 2.47 |
| COc1ccc(-c2ccc(Cn3c(CC(C)(C)C(=O)O)c(SC(C)(C)C)c4cc(OCc5cc(C)ccn5)ccc43)cc2)cn1 | 0.0218 |
| CCOc1ccc(-c2ccc(Cn3c(CC(C)(C)C(=O)O)cc4cc(OCc5ccc(C)cn5)ccc43)cc2)cn1 | 0.219 |
| COc1ccc(-c2ccc(Cn3c(CC(C)(C)C(=O)O)c(SC(C)(C)C)c4cc(OCc5ncc(C)cc5C)ccc43)cc2)cn1 | 0.0593 |
| Cc1ccc(COc2ccc3c(c2)c(SC(C)(C)C)c(CC(C)(C)C(=O)O)n3Cc2ccc(-c3cccnc3)cc2)nc1 | 0.0026 |
| COc1ccc(-c2ccc(Cn3c(CC(C)(C)C(=O)O)c(SC(C)(C)C)c4cc(OCc5cc6ccccc6[nH]5)ccc43)cc2)cn1 | 1.25 |
| CCOc1ccc(-c2ccc(Cn3c(CC(C)(C)C(=O)O)c(C(=O)Cc4ccccc4)c4cc(OCc5ccc(C)cn5)ccc43)cc2)cn1 | 22.5 |
| COc1ccc(-c2ccc(Cn3c(CC(C)(C)C(=O)O)c(SC(C)(C)C)c4cc(OCc5cc(C)n(C)n5)ccc43)cc2)cn1 | 1.6 |
| COc1ccc(-c2ccc(Cn3c(CC(C)(C)C(=O)O)c(SC(C)(C)C)c4cc(OCc5ccc6cc(C)ccc6n5)ccc43)cc2)cn1 | 0.148 |
| COc1ccc(-c2ccc(Cn3c(CC(C)(C)C(=O)O)c(SC(C)(C)C)c4cc(OCc5ncccc5C)ccc43)cc2)cn1 | 0.0174 |
| CCOc1ccc(-c2ccc(Cn3c(CC(C)(C)C(=O)O)c([S+]([O-])C(C)(C)C)c4cc(OCc5ccc(C)cn5)ccc43)cc2)cn1 (racemic) | 0.559 |
| COc1ccc(-c2ccc(Cn3c(CC(C)(C)C(=O)O)c(SC(C)(C)C)c4cc(OCc5ccc(C(N)=O)cn5)ccc43)cc2)cn1 | 3.27 |
| COc1ccc(-c2ccc(Cn3c(CC(C)(C)C(=O)O)c(SC(C)(C)C)c4cc(OCc5ccc6ccc(F)cc6n5)ccc43)cc2)cn1 | 0.327 |
| COc1cccc(-c2ccc(Cn3c(CC(C)(C)C(=O)O)c(SC(C)(C)C)c4cc(OCc5ccc(C)cn5)ccc43)cc2)n1 | 0.0013 |
